Results published in US4758559A, “Pyrrolo[1,2-a] [4,1]benzoxazepine derivatives useful as calmodulin and histamine inhibitors” (Ciba-Geigy Corporation, priority 1986, dated 1988).
pIC50: −log10 of the molar value.

Legend:
[1] = molecular target: calmodulin (Bos taurus, UniProt P62157); assay: inhibition of the calmodulin induced activation of bovine c-AMP phosphodiesterase; type: biochemical; settings: in vitro; read-out: concentration inhibiting calmodulin-induced activation of phosphodiesterase by 50%
Procedure: The calmodulin inhibitory properties indicative of the antisecretory activity of said new compounds are determined in vitro by measuring the inhibition of the calmodulin induced activation of bovine c-AMP phosphodiesterase, according to the method described by J. A. Norman et al, Mol. Pharmacology 16, 1089 (1979).

[2] = test system: diarrhea induced in rats by prostaglandin E2; assay: inhibition of the diarrhea induced in rats by intraperitoneal prostaglandin E2; type: in vivo; settings: 10 mg/Kg p.o. in the rat
Procedure: The antidiarrheal effect of the compounds of the invention is determined by measuring the inhibition of the diarrhea induced in rats by the intraperitoneal administration of prostaglandin E2.
The test is carried out as follows:
Female Sprague-Dawley rats weighing 200-250 g and fasted for 18 hours are employed. The test compounds are dissolved in dimethylsulfoxide diluted with water to a 30-50% dimethyl sulfoxide concentration and administered orally by gastric lavage in a volume of 1 ml/Kg. Thirty or sixty minutes later, prostaglandin E2 (150 μg) is administered i.p. in a volume of 0.5 ml of water. The decrease in fecal excretion compared to untreated animals is measured for a period of 30 minutes after administration of prostaglandin E2.

[3] = test system: rat stomach parietal cells; assay: inhibition of acid secretion in rat stomach parietal cells (14C-aminopyrine accumulation); type: cell-based; settings: histamine (1 mM) and isobutyl methylxanthine (0.1 mM)
Procedure: Inhibition of acid secretion, indicative of antiulcer activity, can be determined in vitro in rat stomach parietal cells as follows:
Approximately 1×10^6 parietal cells (18-22% enriched) are incubated in a balanced salt solution containing glucose, BSA (bovine serum albumin), 0.1 uCi of ^14 C-aminopyrine, histamine (1 mM), isobutyl methylxanthine (0.1 mM) and the compound to be tested under 95% oxygen at 37° C. for a period of 40 minutes. The cells are then washed, ruptured with distilled water and analyzed by scintillation spectrometry. A decrease in the accumulation of ^14 C-aminopyrine in the cells represents an indirect measure of the inhibition of acid secretion.

pIC50 [1]: ~5.52
pIC50 [3]: ~6.52
SMILES: CC1(CN2CCC(n3c(=O)[nH]c4ccccc43)CC2)OCc2ccccc2-n2cccc21 (stereo not drawn) [Example 1, 1,3-Dihydro-1-{1-[(4-methyl-4H,6H,-pyrrolo[1,2-a][4,1]-benzoxazepin-4-yl)-methyl]-4-piperidinyl}-2H-benzimidazol-2-one (1:1)maleate]
prostaglandin E2 induced fecal excretion [2]: reduces prostaglandin E2 induced fecal excretion
